Measurements as given in the NIST ThermoML archive (doi:10.1021/je0302304).
Numbers after ± are expanded uncertainties.

Assays:
[1] = 101.32 kPa, Liquid
[2] = refractive index (Na D-line) (dimensionless); settings: 101.33 kPa, Liquid, Standard Abbe refractometry
[3] = xn = mol fraction of the nth substance listed; settings: 101.32 kPa, Liquid, x2 = 0
[4] = refractive index (Na D-line) (dimensionless); xn = mol fraction of the nth substance listed; settings: 101.32 kPa, Liquid, Standard Abbe refractometry, x2 = 0

SMILES | mass density ([1]; 288.15 K) | mass density ([1]; 298.15 K) | mass density ([1]; 308.15 K) | mass density ([1]; 318.15 K) | refractive index ([2]; 288.15 K) | refractive index ([2]; 298.15 K) | refractive index ([2]; 308.15 K) | refractive index ([2]; 318.15 K) | mass density ([3]; 288.15 K) | mass density ([3]; 298.15 K) | mass density ([3]; 308.15 K) | mass density ([3]; 318.15 K) | refractive index ([4]; 288.15 K) | refractive index ([4]; 298.15 K) | refractive index ([4]; 308.15 K) | refractive index ([4]; 318.15 K)
CCO [ethanol] + COCCOCCOCCOCCOC | – | – | – | – | – | – | – | – | 793.6 ± 0.5 kg/m3 | 785.2 ± 0.5 kg/m3 | 776.6 ± 0.5 kg/m3 | 767.9 ± 0.5 kg/m3 | 1.3632 ± 0.0003 | 1.3591 ± 0.0003 | 1.3551 ± 0.0003 | 1.3509 ± 0.0003
CCO [ethanol] + COCCOCCOCCOC | – | – | – | – | – | – | – | – | 793.6 ± 0.5 kg/m3 | 785.2 ± 0.5 kg/m3 | 776.6 ± 0.5 kg/m3 | 767.9 ± 0.5 kg/m3 | 1.3632 ± 0.0005 | 1.3591 ± 0.0005 | 1.3551 ± 0.0005 | 1.3509 ± 0.0005
CCO [ethanol] | 793.6 ± 0.5 kg/m3 | 785.2 ± 0.5 kg/m3 | 776.6 ± 0.5 kg/m3 | 767.9 ± 0.5 kg/m3 | 1.3632 ± 0.0005 | 1.3591 ± 0.0005 | 1.3551 ± 0.0005 | 1.3509 ± 0.0005 | – | – | – | – | – | – | – | –
CCO [ethanol] + COCCOC | – | – | – | – | – | – | – | – | 793.6 ± 0.5 kg/m3 | 785.2 ± 0.5 kg/m3 | 776.6 ± 0.5 kg/m3 | 767.9 ± 0.5 kg/m3 | 1.3632 ± 0.0005 | 1.3591 ± 0.0005 | 1.3551 ± 0.0005 | 1.3509 ± 0.0005
CCO [ethanol] + COCCOCCOC | – | – | – | – | – | – | – | – | 793.6 ± 0.5 kg/m3 | 785.2 ± 0.5 kg/m3 | 776.6 ± 0.5 kg/m3 | 767.9 ± 0.5 kg/m3 | 1.3632 ± 0.0005 | 1.3591 ± 0.0005 | 1.3551 ± 0.0005 | 1.3509 ± 0.0005

Second part, the molecule after the results:

mass density ([1]; 288.15 K) | mass density ([1]; 298.15 K) | mass density ([1]; 308.15 K) | mass density ([1]; 318.15 K) | refractive index ([2]; 288.15 K) | refractive index ([2]; 298.15 K) | refractive index ([2]; 308.15 K) | refractive index ([2]; 318.15 K) | mass density ([3]; 288.15 K) | mass density ([3]; 298.15 K) | mass density ([3]; 308.15 K) | mass density ([3]; 318.15 K) | refractive index ([4]; 288.15 K) | refractive index ([4]; 298.15 K) | refractive index ([4]; 308.15 K) | refractive index ([4]; 318.15 K) | SMILES
1016 ± 0.3 kg/m3 | 1006.6 ± 0.3 kg/m3 | 997.4 ± 0.3 kg/m3 | 988.1 ± 0.3 kg/m3 | 1.4344 ± 0.0003 | 1.4303 ± 0.0003 | 1.4262 ± 0.0003 | 1.4221 ± 0.0003 | – | – | – | – | – | – | – | – | COCCOCCOCCOCCOC [2,5,8,11,14-pentaoxapentadecane]
989.7 ± 0.4 kg/m3 | 980.1 ± 0.4 kg/m3 | 970.7 ± 0.4 kg/m3 | 961.1 ± 0.4 kg/m3 | 1.425 ± 0.0005 | 1.4209 ± 0.0005 | 1.4167 ± 0.0005 | 1.4125 ± 0.0005 | – | – | – | – | – | – | – | – | COCCOCCOCCOC [2,5,8,11-tetraoxadodecane]
948.6 ± 0.3 kg/m3 | 938.7 ± 0.3 kg/m3 | 928.7 ± 0.3 kg/m3 | 918.6 ± 0.3 kg/m3 | 1.4101 ± 0.0005 | 1.4058 ± 0.0005 | 1.4012 ± 0.0005 | 1.3968 ± 0.0005 | – | – | – | – | – | – | – | – | COCCOCCOC [2,5,8-trioxanonane]
872.4 ± 0.3 kg/m3 | 861.5 ± 0.3 kg/m3 | 850.4 ± 0.4 kg/m3 | 839.2 ± 0.4 kg/m3 | 1.3824 ± 0.0005 | 1.3772 ± 0.0005 | 1.3722 ± 0.0005 | 1.3672 ± 0.0005 | – | – | – | – | – | – | – | – | COCCOC [1,2-dimethoxyethane]
